In paper PMC10064984, “Anti-cyclooxygenase, anti-glycation, and anti-skin aging effect of Dendrobium officinale flowers’ aqueous extract and its phytochemical validation in aging” (Frontiers in Immunology, 2023):
“And” between values parts separate entries of the source, which are not always exact repeats. Identical values can stand only once. Like-named read-outs stand apart in the source and are kept apart here.

Experiments:
[1] = Fluorescent AGEs formation in a BSA-fructose/glucose system; assay type: biochemical; conditions: for IC50: read-out: BSA-glycation IC50
Procedure, shortened: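 BSA glycated in vitro with D-glucose and D-fructose while test samples, dissolved in DMSO:water (1:4), were present. Percent inhibition of fluorescent AGE formation calculated from fluorescence corrected for sample-only and BSA-free blanks; triplicate.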

[2] = tested on: CML expression in MGO-induced HDFs; assay: Glycation cell assay: CML expression in MGO-induced HDFs (IF); assay type: cell-based, human; conditions: positive compound
Protocol: Based on previously reported methods ([25]), human primary dermal fibroblasts (HDFs) were induced by MGO to establish a cell model of high CML expression.
HDFs were cultured in high-glucose DMEM supplemented with 10% FBS containing 100 µg/ml of PS at 37°C in a humidified 5% CO2 incubator. Cell viability was assessed using the CCK-8 kit. HDFs were cultured in 12-well plates to approximately 70% confluence and then treated with 0.5 mmol/L of MGO for 48 h to induce glycation and the formation of CML. Subsequently, different concentrations of samples were added and co-cultured with MGO for an additional 48 h. Cells were then washed once with PBS and fixed in polyformaldehyde overnight at 4°C. Triton-X-100 solution (0.1%) was assigned to fixed cells for 5 min at room temperature to improve cell membrane permeability. After washing twice with PBS, cells were blocked in 1% BSA for 1 h, followed by incubation with the primary CML antibody (1:50) overnight at 4°C. […] Counterstaining was performed by adopting anti-fluorescence quenching and sealing liquid containing DAPI, followed by visualisation and fluorescence image capture using a microscope (Leica, Germany). ImageJ software was used to quantify CML expression from different images randomly selected in each group.

[3] = tested on: type I collagen in HDFs; assay: Collagen type I immunofluorescence staining in HDFs; assay type: cell-based, human; conditions: for COL I staining: VC positive control, NT = 100%, replicates and AVE, listed as VC
Protocol: (§1) HDFs were cultured in DMEM with 10% (v/v) FBS and 1% PS at 37°C in a humidified 5% CO2 incubator. Cells were subcultured using pancreatin solution after reaching confluence. All experiments were performed between the third and eighth passages.
(§2) The synthesis of collagen types I and III was detected using IF ([26]) and ELISA ([27]). HDFs were digested and seeded in a 24-well culture plate on slides at a density of 50,000 cells/well in a complete medium. After reaching 80% confluency, cells were starved with the medium in the absence of serum for 16 h. Cells were then treated with positive controls or active samples (prepared in medium without serum) for an additional 48 h. For analysis and visualisation of types I and III collagens, the supernatants and remaining cell slides were both collected and analysed using ELISA kits and the IF staining method, respectively.
(§3) Collected supernatants were centrifuged at 10,000 rpm for 10 min and used for types I and III collagen ELISA, according to the manufacturer’s protocol. The remaining cell slides were washed once with PBS and fixed in polyformaldehyde overnight at 4°C. Subsequently, the slides were treated with 0.5% Triton-X100 for 5 min. After washing, cells were blocked with 1% BSA at room temperature for 1 h. Cells were then incubated with types I and type III collagen primary antibodies (1:100) for 2 h at room temperature. […] Finally, the nuclei were counter-stained with DAPI, and relevant fluorescent images were captured using a microscope. ImageJ software was used to quantify collagen expression from different images randomly selected in each group.

[4] = tested on: type III collagen in HDFs; assay: Collagen type III immunofluorescence staining in HDFs; assay type: cell-based, human; conditions: for COL III staining: VC positive control, NT = 100%, replicates and AVE, listed as VC
Protocol: as §1, §2, §3

[5] = tested on: secreted type I collagen of HDFs; assay: Extracellular collagen type I ELISA on HDFs; assay type: cell-based, human; conditions: for COL I (ELISA): VC positive control, replicates and AVE, listed as VC
Protocol: as §1, §2, §3

[6] = tested on: secreted type III collagen of HDFs; assay: Extracellular collagen type III ELISA on HDFs; assay type: cell-based, human; conditions: VC positive control, replicates and AVE, listed as VC
Protocol: as §1, §2
Collected supernatants were centrifuged at 10,000 rpm for 10 min and used for types I and III collagen ELISA, according to the manufacturer’s protocol. The remaining cell slides were washed once with PBS and fixed in polyformaldehyde overnight at 4°C. Subsequently, the slides were treated with 0.5% Triton-X100 for 5 min. After washing, cells were blocked with 1% BSA at room temperature for 1 h. […] ImageJ software was used to quantify collagen expression from different images randomly selected in each group.

Row | Compound | fluorescent AGEs IC50 [1] [µg/mL] | inhibition of fluorescent AGEs formation (BSA-抗糖化), single replicate ([1]; 15.625 ug/ml) | IC50 ([1]; lower part of sheet (compound series)) [µM] | IC50 ([1]; mean ± SD, n = 3) [µM] | BSA-glycation IC50 ([1]; upper part of sheet (extract series)) [µg/mL] | IC50 ([1]; upper part of sheet (extract series), positive control also given in μM) [µM] | inhibition of glycation (CML) [2] [%] | collagen type I expression (IF) ([3]; VC 200 μg/ml, positive control) | COL I staining [3] | COL I staining ([3]; mean) [%] | collagen type III expression (IF) ([4]; VC 200 μg/ml, positive control) | COL III staining [4] | COL III staining ([4]; mean) [%] | COL I (ELISA) [5] | COL I (ELISA) ([5]; mean) [pg/mL] | increase of secreted collagen type I levels ([5]; VC, 48 h, culture medium) [%] | COL III (ELISA) [6] | COL III (ELISA) ([6]; mean) [ng/mL]
1 | Cl.N=C(N)NN [AG, Aminoguanidine hydrochloride, reference compound] | 177.3 ± 11.6 | -1.16% and 3.22% | 1620 ± 111 | 1600 | 178.47 ± 12.27 | 1620 ± 111 | 88.11 |  |  |  |  |  |  |  |  |  |  | 
2 | O=C1O[C@H]([C@@H](O)CO)C(O)=C1O [vitamin C] |  |  |  |  |  |  |  | 190.20 % of control | 173.88% and 170.79% and 188.58% and 168.29% and 249.47% | 190.20 | 125.90 % of control | 118.22% and 137.59% and 116.52% and 131.28% | 125.90 | 646.77 pg/mL and 611.41 pg/mL and 656.93 pg/mL | 638.37 | 21.94 | 2.70 ng/mL and 2.97 ng/mL and 3.15 ng/mL | 2.94
